Holding throughout (type): ADME
Data set [1] has as its target T1, Albumin (Bos taurus, UniProt P02769). In words: Binding affinity to bovine serum albumin by fluorescence quenching assay. The following applies: cattle, isolated protein.
Data set [2] addresses T1, Albumin. In words: Binding affinity to bovine serum albumin by fluorescence spectroscopy analysis. The following applies: cattle, isolated protein.
In data set [3] the target is T1, Albumin. In words: Binding affinity to bovine serum albumin random coil at 0.5 mM by circular dichroism analysis. The following applies: cattle, isolated protein, 500 µM. On the technique in general: Circular dichroism is the unequal absorption of left and right circularly polarised light.
In data set [4] the target is T1, Albumin. In words: Binding affinity to bovine serum albumin turn at 0.5 mM by circular dichroism analysis. Conditions: cattle, isolated protein, 500 µM; call rule not given here.
Data set [5] has as its target T1, Albumin. In words: Binding affinity to bovine serum albumin beta-sheet at 0.5 mM by circular dichroism analysis. The following applies: cattle, isolated protein, 500 µM.
Data set [6] deals with T1, Albumin. In words: Binding affinity to bovine serum albumin at 0.125 mM after 2 hrs by FTIR spectroscopic analysis. The following applies: cattle, isolated protein, 125 µM.
Data set [7] addresses T1, Albumin. In words: Binding affinity to bovine serum albumin beta-sheet (1640 to 1610 cm'-1) at 0.5 mM after 2 hrs by FTIR spectroscopic analysis. The following applies: cattle, isolated protein, 500 µM.
For data set [8], the target named is T1, Albumin. In words: Binding affinity to bovine serum albumin random coil (1648 to 1641 cm'-1) at 0.5 mM after 2 hrs by FTIR spectroscopic analysis. Conditions: cattle, isolated protein, 500 µM.
The target in data set [9] is T1, Albumin. In words: Binding affinity to bovine serum albumin alpha-helix (1660 to 1650 cm'-1) at 0.5 mM after 2 hrs by FTIR spectroscopic analysis. The following applies: cattle, isolated protein, 500 µM.
Data set [10] concerns the target T1, Albumin. In words: Binding affinity to bovine serum albumin turn (1680 to 1660 cm'-1) at 0.5 mM after 2 hrs by FTIR spectroscopic analysis. The following applies: cattle, isolated protein, 500 µM.
Data set [11] concerns the target T1, Albumin. In words: Binding affinity to bovine serum albumin beta-antiparallel (1692 to 1680 cm'-1) at 0.5 mM after 2 hrs by FTIR spectroscopic analysis. The following applies: cattle, isolated protein, 500 µM.
Data set [12] deals with T1, Albumin. In words: Binding affinity to bovine serum albumin alpha-helix at 0.5 mM by circular dichroism analysis. The following applies: cattle, isolated protein, 500 µM.
Data set [13] deals with T1, Albumin. In words: Binding affinity to bovine serum albumin beta-sheet (1640 to 1610 cm'-1) at 0.1 mM after 2 hrs by FTIR spectroscopic analysis. Conditions: cattle, isolated protein, 100 µM.
Data set [14] concerns the target T1, Albumin. In words: Binding affinity to bovine serum albumin random coil (1648 to 1641 cm'-1) at 0.1 mM after 2 hrs by FTIR spectroscopic analysis. Conditions: cattle, isolated protein, 100 µM.
The target in data set [15] is T1, Albumin. In words: Binding affinity to bovine serum albumin alpha-helix (1660 to 1650 cm'-1) at 0.1 mM after 2 hrs by FTIR spectroscopic analysis. Conditions: cattle, isolated protein, 100 µM.
In data set [16] the target is T1, Albumin. In words: Binding affinity to bovine serum albumin turn (1680 to 1660 cm'-1) at 0.1 mM after 2 hrs by FTIR spectroscopic analysis. Conditions: cattle, isolated protein, 100 µM.
Data set [17] addresses T1, Albumin. In words: Binding affinity to bovine serum albumin beta-antiparallel (1692 to 1680 cm'-1) at 0.1 mM after 2 hrs by FTIR spectroscopic analysis. The following applies: cattle, isolated protein, 100 µM.

T1 sequence (P02769 whole entry): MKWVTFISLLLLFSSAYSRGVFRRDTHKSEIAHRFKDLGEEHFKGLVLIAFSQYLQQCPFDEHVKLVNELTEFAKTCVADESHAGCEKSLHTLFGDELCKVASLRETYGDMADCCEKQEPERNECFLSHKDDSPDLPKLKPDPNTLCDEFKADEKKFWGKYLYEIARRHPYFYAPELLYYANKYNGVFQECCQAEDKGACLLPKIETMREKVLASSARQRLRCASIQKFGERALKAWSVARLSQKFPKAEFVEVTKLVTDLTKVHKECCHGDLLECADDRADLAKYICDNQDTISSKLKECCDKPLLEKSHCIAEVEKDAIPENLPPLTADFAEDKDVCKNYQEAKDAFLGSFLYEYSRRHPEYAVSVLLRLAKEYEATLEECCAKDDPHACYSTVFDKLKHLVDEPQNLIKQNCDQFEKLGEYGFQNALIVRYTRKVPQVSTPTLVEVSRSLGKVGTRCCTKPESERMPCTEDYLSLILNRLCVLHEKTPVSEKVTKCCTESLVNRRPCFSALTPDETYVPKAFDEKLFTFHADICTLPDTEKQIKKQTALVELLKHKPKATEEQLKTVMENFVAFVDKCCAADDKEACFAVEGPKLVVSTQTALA

In turn, `CC1=C(/C=C/C(C)=C/C=C/C(C)=C/CO)C(C)(C)CCC1` [RETINOL] returned a Kq in data set [1] of 4.5 ×10¹³ /M/sec. This compound came in with a K in [2] of 5.3 ×10⁶ /M. Moreover, the Activity in data set [3] is reported as 18%; in data set [4], 14%; in [5], 16%; in [6], “Active”; in data set [7] it was 19%; in [8] it was 20%. Moreover, the Activity in data set [9] stood at 36%; in data set [10], 15%; in data set [11], 10%; in data set [12] it was 52%.

Compound `CC1=C(/C=C/C(C)=C/C=C/C(C)=C/C(=O)O)C(C)(C)CCC1` [TRETINOIN] returned a Kq in data set [1] of 2.5 ×10¹³ /M/sec. The compound further yielded a K in [2] of 2.3 ×10⁶ /M. Besides, the Activity in data set [3] was 20%; in [4], 18%; in data set [5], 18%; in data set [6], “Active”; in data set [13], 15%; in [14], 25%. In addition, the Activity in data set [15] is on record as 26%; in data set [16] it was 27%; in data set [17] it was 7%; in data set [12], 44%.

These data come from ChEMBL document CHEMBL2169873, “Binding sites of retinol and retinoic acid with serum albumins” (Eur J Med Chem, 2012).
